Values joined by “and” are separate entries in the source; they are usually repeats but may differ in a detail not shown here. Equal values may be shown once. Read-outs that look alike come from different tables or passages of the source.
Columns and labels:
[1] = Octanol/PBS partition coefficient (LogD, pH 7.4); assay type: physicochemical
Experimental: Partition coefficients, logD (pH7.4) value, were determined according to a literature procedure.^[ [46] ^] Briefly, a 10 µL solution of [^68Ga]Ga‐AJ206 (around 10 µCi) was added to a solution of 1‐octanol (200 µL) mixed with phosphate buffered saline (PBS) (190 µL) in a 1.5 mL centrifuge tube. After the mixture was vigorously shaken and vortexed, it was centrifuged at 3000 rpm for 5 min. Aliquots (10 µL) were removed from the two phases, and the radioactivity was measured on an automated gamma counter (1282 Compugamma CS, Pharmacia/LKB Nuclear, Inc., Gaithersburg, MD). The logD was calculated as the average log ratio value of the radioactivity in the 1‐octanol fraction and the PBS fraction from the four samples.

[2] = Ex vivo biodistribution in mice with MOLP8 tumor xenografts; set-up: species or system NSG mice; settings: both sexes, NSG, mouse, 80 uCi, total radioactivity, MOLP8 xenograft mice; for tissue to tissue ratio at 5 min: 5 min p.i.; for tissue to tissue ratio at 0.5 h: 30 min p.i.; for tissue to tissue ratio at 1 h: 60 min p.i.; for tissue to tissue ratio at 2 h: 120 min p.i.
Experimental: (§1) Animal studies were performed under Johns Hopkins University Animal Care and Use Committee (ACUC‐approved protocol (Principal investigator: Sridhar Nimmagadda, Ph.D. and Protocol number M021M175). Male and female NSG mice (5‐6 weeks old) were used to establish xenografts by administering 3 million cells (50% Corning Matrigel) subcutaneously to form various tumor models within 3–4 weeks. Imaging or biodistribution studies (n = 3–5) were conducted on mice with tumor volumes of 100–200 mm^3. Disseminated tumor models were developed by injecting 4–5 million cells in saline intravenously for MOLP8 and MM1S‐Luc models (n = 4–5). Luciferase expressing MM1S cell line (MM1S‐Luc) was used to monitor cancer cell dissemination in the body. Tumor establishment was confirmed by injecting D‐Luciferin intraperitoneally (150 mg kg^−1) and imaged mice after 10 min in IVIS bioluminescence imaging system. Bone marrow tumors were ready for imaging after 25–30 d of implantation.
(§2) Mice with 100–200 mm^3 tumor volume were used for ex vivo biodistribution studies. For radiotracer pharmacokinetics studies, mice with MOLP8 tumor xenografts received ≈80 µCi (2.96 MBq) [^68Ga]Ga‐AJ206 and were sacrificed at pre‐determined time points (5, 30, 60 and 120 min). Similarly, for dosimetry study, mice with MM1S tumor xenografts received ≈80 µCi (2.96 MBq) of [^68Ga]Ga‐AJ206 and were sacrificed at pre‐determined time points (5, 30, 60, 90 and 120 min). All other mice were injected with ≈50µCi (1.85 MBq) [^68Ga]Ga‐AJ206 and were sacrificed at 60 min. The selected tissues were collected, weighed, counted, and their %ID g^−1 values calculated for biodistribution analysis. The tissues included blood, muscle, tumor, thymus, heart, lung, liver, pancreas, stomach, small intestine, large intestine, spleen, adrenals, kidney, bladder, femur, and brain.

MOLP8 tumor xenografts = test: as above; set-up: species or system NSG mice; settings: MOLP8 xenograft mice
Experimental: as §1, §2

[3] = Ex vivo biodistribution in mice with U266 tumor xenografts; settings: both sexes, NSG, mouse, 60 min p.i., U266 xenograft mice; for tissue uptake at 1 h: 50 µCi; for tissue to tissue ratio at 1 h: 50 uCi, total radioactivity
Experimental: as §1, §2

[4] = tumor/blood, read-out: Tumor/blood ratio
[5] = tumor/muscle, read-out: Tumor/muscle ratio
[6] = 60 min p.i., listed as [68Ga]Ga-AJ206

SMILES: CC[C@H](C)[C@@H]1NC(=O)[C@@H]2CCCN2C(=O)[C@H](Cc2ccccc2)NC(=O)[C@H](CC(=O)O)NC(=O)[C@H](C)NC(=O)[C@@H]2CSCc3cc(cc(c3)CSC[C@H](NC(=O)[C@H](C)NC(=O)CCOCCOCCOCCNC(=O)CN3CCN(CC(=O)O)CCN(CC(=O)O)CC3)C(=O)N[C@@H](C(C)C)C(=O)N3CCC[C@H]3C(=O)N2)CSC[C@@H](C(N)=O)NC(=O)[C@H](Cc2ccc(O)cc2)NC(=O)[C@H](Cc2c[nH]c3ccccc23)NC1=O [[^68Ga]Ga‐AJ206, metal not drawn]
- logD [1]: -1.32 ± 0.08
- tissue to tissue ratio at 5 min [2, 4]: 0.32 ± 0.04
- tissue to tissue ratio at 0.5 h [2, 4]: 1.43 ± 0.46
- tissue to tissue ratio at 1 h [2, 4]: > 7
- tissue to tissue ratio at 2 h [2, 4]: 19.7 ± 6.57
- tissue to tissue ratio at 5 min [2, 5]: 2.94 ± 0.47
- tissue to tissue ratio at 0.5 h [2, 5]: 7.28 ± 1.89
- tissue to tissue ratio at 1 h [2, 5]: > 25
- tissue to tissue ratio at 2 h [2, 5]: 27.4 ± 18.6
- uptake in blood (MOLP8 tumor xenografts; 5 min p.i.): 8.25 ± 0.50 %ID g^−1
- uptake in femur (MOLP8 tumor xenografts; 5 min p.i.): 1.42 ± 0.09 %ID g^−1
- uptake in heart (MOLP8 tumor xenografts; 5 min p.i.): 3.13 ± 0.27 %ID g^−1
- uptake in kidney (MOLP8 tumor xenografts; 5 min p.i.): 11.17 ± 0.65 %ID g^−1
- uptake in liver (MOLP8 tumor xenografts; 5 min p.i.): 21.24 ± 1.31 %ID g^−1
- uptake in lungs (MOLP8 tumor xenografts; 5 min p.i.): 6.16 ± 0.16 %ID g^−1
- uptake in muscle (MOLP8 tumor xenografts; 5 min p.i.): 0.92 ± 0.11 %ID g^−1
- uptake in small intestine (MOLP8 tumor xenografts; 5 min p.i.): 1.95 ± 0.08 %ID g^−1
- uptake in spleen (MOLP8 tumor xenografts; 5 min p.i.): 2.28 ± 0.50 %ID g^−1
- uptake in stomach (MOLP8 tumor xenografts; 5 min p.i.): 1.08 ± 0.07 %ID g^−1
- uptake in tumor (MOLP8 tumor xenografts; 5 min p.i.): 2.58 ± 0.18 %ID g^−1
- uptake in blood (MOLP8 tumor xenografts; 30 min p.i.): 2.07 ± 0.30 %ID g^−1
- uptake in femur (MOLP8 tumor xenografts; 30 min p.i.): 0.65 ± 0.08 %ID g^−1
- uptake in heart (MOLP8 tumor xenografts; 30 min p.i.): 0.83 ± 0.18 %ID g^−1
- uptake in kidney (MOLP8 tumor xenografts; 30 min p.i.): 17.09 ± 1.77 %ID g^−1
- uptake in liver (MOLP8 tumor xenografts; 30 min p.i.): 6.39 ± 3.71 %ID g^−1
- uptake in lungs (MOLP8 tumor xenografts; 30 min p.i.): 1.86 ± 0.29 %ID g^−1
- uptake in muscle (MOLP8 tumor xenografts; 30 min p.i.): 0.37 ± 0.05 %ID g^−1
- uptake in small intestine (MOLP8 tumor xenografts; 30 min p.i.): 0.59 ± 0.14 %ID g^−1
- uptake in spleen (MOLP8 tumor xenografts; 30 min p.i.): 0.75 ± 0.14 %ID g^−1
- uptake in stomach (MOLP8 tumor xenografts; 30 min p.i.): 0.51 ± 0.06 %ID g^−1
- uptake in tumor (MOLP8 tumor xenografts; 30 min p.i.): 2.91 ± 0.84 %ID g^−1
- Tumor/blood ratio (MOLP8 tumor xenografts; 60 min p.i.): 7.20 ± 0.89
- Tumor/muscle ratio (MOLP8 tumor xenografts; 60 min p.i.): 27.12 ± 2.73
- uptake in blood (MOLP8 tumor xenografts; 60 min p.i.): 0.56 ± 0.09 %ID g^−1
- uptake in femur (MOLP8 tumor xenografts; 60 min p.i.): 0.28 ± 0.07 %ID g^−1
- uptake in heart (MOLP8 tumor xenografts; 60 min p.i.): 0.29 ± 0.03 %ID g^−1
- uptake in kidney (MOLP8 tumor xenografts; 60 min p.i.): 16 %ID g^−1 and 16.65 ± 2.52 %ID g^−1
- uptake in liver (MOLP8 tumor xenografts; 60 min p.i.): 1.22 ± 0.09 %ID g^−1
- uptake in lungs (MOLP8 tumor xenografts; 60 min p.i.): 0.71 ± 0.10 %ID g^−1
- uptake in muscle (MOLP8 tumor xenografts; 60 min p.i.): 0.14 ± 0.02 %ID g^−1
- uptake in small intestine (MOLP8 tumor xenografts; 60 min p.i.): 0.65 ± 0.09 %ID g^−1
- uptake in spleen (MOLP8 tumor xenografts; 60 min p.i.): 0.39 ± 0.03 %ID g^−1
- uptake in stomach (MOLP8 tumor xenografts; 60 min p.i.): 0.25 ± 0.06 %ID g^−1
- uptake in tumor (MOLP8 tumor xenografts; 60 min p.i.): 3.76 ± 0.25 %ID g^−1
- uptake in blood (MOLP8 tumor xenografts; [6]): 0.56±0.09 %ID g^−1
- uptake in femur (MOLP8 tumor xenografts; [6]): 0.28±0.07 %ID g^−1
- uptake in heart (MOLP8 tumor xenografts; [6]): 0.29±0.03 %ID g^−1
- uptake in kidney (MOLP8 tumor xenografts; [6]): 16.65±2.52 %ID g^−1
- uptake in liver (MOLP8 tumor xenografts; [6]): 1.22±0.09 %ID g^−1
- uptake in lungs (MOLP8 tumor xenografts; [6]): 0.71±0.10 %ID g^−1
- uptake in muscle (MOLP8 tumor xenografts; [6]): 0.14±0.02 %ID g^−1
- uptake in small intestine (MOLP8 tumor xenografts; [6]): 0.65±0.09 %ID g^−1
- uptake in spleen (MOLP8 tumor xenografts; [6]): 0.39±0.03 %ID g^−1
- uptake in stomach (MOLP8 tumor xenografts; [6]): 0.25±0.06 %ID g^−1
- uptake in tumor (MOLP8 tumor xenografts; [6]): 3.76±0.25 %ID g^−1
- uptake in blood (MOLP8 tumor xenografts; 120 min p.i.): 0.05 ± 0.01 %ID g^−1
- uptake in femur (MOLP8 tumor xenografts; 120 min p.i.): 0.07 ± 0.01 %ID g^−1
- uptake in heart (MOLP8 tumor xenografts; 120 min p.i.): 0.05 ± 0.01 %ID g^−1
- uptake in kidney (MOLP8 tumor xenografts; 120 min p.i.): 13.75 ± 0.23 %ID g^−1
- uptake in liver (MOLP8 tumor xenografts; 120 min p.i.): 0.42 ± 0.01 %ID g^−1
- uptake in lungs (MOLP8 tumor xenografts; 120 min p.i.): 0.16 ± 0.03 %ID g^−1
- uptake in muscle (MOLP8 tumor xenografts; 120 min p.i.): 0.07 ± 0.04 %ID g^−1
- uptake in small intestine (MOLP8 tumor xenografts; 120 min p.i.): 0.18 ± 0.04 %ID g^−1
- uptake in spleen (MOLP8 tumor xenografts; 120 min p.i.): 0.17 ± 0.02 %ID g^−1
- uptake in stomach (MOLP8 tumor xenografts; 120 min p.i.): 0.03 ± 0.01 %ID g^−1
- uptake in tumor (MOLP8 tumor xenografts; 120 min p.i.): 1.46 ± 0.02 %ID g^−1
- blood pool activity cleared (MOLP8 tumor xenografts; by 60 min): ~95%
- tissue uptake at 1 h ([3]; blood, read-out: uptake in blood): 0.32 ± 0.06 %ID/g
- tissue uptake at 1 h ([3]; femur, read-out: uptake in femur): 0.13 ± 0.02 %ID/g
- tissue uptake at 1 h ([3]; heart, read-out: uptake in heart): 0.15 ± 0.02 %ID/g
- tissue uptake at 1 h ([3]; kidney, read-out: uptake in kidney): 21.5 ± 2.68 %ID/g
- tissue uptake at 1 h ([3]; liver, read-out: uptake in liver): 0.78 ± 0.06 %ID/g
- tissue uptake at 1 h ([3]; lung, read-out: uptake in lung): 0.42 ± 0.04 %ID/g
- tissue uptake at 1 h ([3]; muscle, read-out: uptake in muscle): 0.08 ± 0.01 %ID/g
- tissue uptake at 1 h ([3]; small intestine, read-out: uptake in small intestine): 0.16 ± 0.01 %ID/g
- tissue uptake at 1 h ([3]; spleen, read-out: uptake in spleen): 0.24 ± 0.01 %ID/g
- tissue uptake at 1 h ([3]; stomach, read-out: uptake in stomach): 0.39 ± 0.3 %ID/g
- tissue uptake at 1 h ([3]; tumor, read-out: uptake in tumor): 0.25 ± 0.03 %ID/g
- tissue to tissue ratio at 1 h ([3]; tumor/blood, read-out: Tumor/Blood ratio): 0.83 ± 0.09
- tissue to tissue ratio at 1 h ([3]; tumor/muscle, read-out: Tumor/Muscle ratio): 3.43 ± 0.28
